From US11401278B2, “Macrocyclic indole derivatives” (The Broad Institute, Inc., priority 2017, dated 2022)
Where a name gives a salt, the structure may show the parent alone. Read-outs that look alike come from different tables or passages of the source. Each block holds one compound with its values, some of them ahead of it.

What was measured:
[1] = target: BCL-2 (Homo sapiens (Human), UniProt P10415); experiment: Protein-protein interaction assay BCL-2/Bad BH3 peptide (BCL-2 assay, TR-FRET); format: binding; conditions: His-BCL-2 / Bad BH3 peptide, median
Sequence of BCL-2 (P10415 other isoform, or with tags, fused parts or gaps): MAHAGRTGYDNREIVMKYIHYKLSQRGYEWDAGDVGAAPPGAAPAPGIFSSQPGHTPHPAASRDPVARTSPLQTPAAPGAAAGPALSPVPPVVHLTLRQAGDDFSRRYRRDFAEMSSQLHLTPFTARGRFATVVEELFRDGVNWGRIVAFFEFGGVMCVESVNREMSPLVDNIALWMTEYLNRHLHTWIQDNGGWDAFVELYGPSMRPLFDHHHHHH
Protocol: Assay 3 Protein-Protein Interaction Assay: BCL-2/Bad BH3 Peptide (BCL-2 Assay)
The dose-dependent inhibition by the compounds described in this invention of the interaction between BCL-2 and the BH3 domain of Bad (both human) was determined using a steady state binding competition assay with time-resolved fluorescence energy transfer (TR-FRET) readout. For that purpose BCL-2 (amino acids 1-211, C-terminal fused to a hexahistidine (6×His) tag (SEQ ID 5) and a synthetic Bad BH3-derived peptide of sequence Biotin-PEG2-PEG2-NLWAAQRYGRELRR-Nle-SDEFVDSFKK-amide (SEQ ID 4) served as protein receptor and tracer ligand respectively. The recombinant BCL-2 protein (expressed in E. coli) was purchased from BPS Bioscience (San Diego, Calif., USA). The Bad BH3-derived peptide can be obtained from e.g. Biosyntan (Berlin, Germany).
In the assay 11 different concentrations of each compound (0.1 nM, 0.33 nM, 1.1 nM, 3.8 nM, 13 nM, 44 nM, 0.15 μM, 0.51 μM, 1.7 μM, 5.9 μM and 20 μM) were typically measured as duplicates in the same microtiter plate. For that, 100-fold concentrated DMSO solutions were prepared by serial dilutions (1:3.4) of a 2 mM stock solution in a clear, 384-well microtiter plate (Greiner Bio-One, Frickenhausen, Germany). From there, 50 nl were transferred in a dark test plate (Greiner Bio-One, Frickenhausen, Germany). The assay was initiated by addition of 2 μl of a 2.5-fold concentrated His-BCL-2 solution (usually for a 1 nM end concentration in 5 μl reaction volume) in aqueous assay buffer [50 mM Tris/HCl pH 7, 100 mM sodium chloride (NaCl), 50 mM potassium fluoride (KF), 0.005% Tween-20, 2 mM DTT, 0.1% bovine gamma globulin (BGG)] to the compounds in the assay plate. This was followed by a 10-minute incubation step at 22° C. for pre-equilibration of the putative complex between His-BCL-2 and the compounds. After that, 3 μl of a 1.67-fold concentrated solution (in assay buffer) consisting of Bad BH3-derived peptide (1 nM end concentration) and TR-FRET detection reagents [1.67 nM anti-His-Eu cryptate and 1.67 nM streptavidin-XL665 (both from Cisbio Bioassays, Codolet, France)], were added.
The mixture was incubated in the dark for one hour at 22° C. and then overnight at 4° C. The formation of BCL-2/Bad complexes was determined by measuring the resonance energy transfer of the anti-His-Eu-cryptate antibody to the streptavidin-XL665 present in the reaction. For that purpose, the fluorescence emission at 620 nm and 665 nm after excitation at 330-350 nm was measured in a TR-FRET measuring instrument, for instance a Rubystar or a Pherastar (both from BMG Lab Technologies, Offenburg, Germany) or a Viewlux (Perkin-Elmer). The ratio of the emission at 665 nm and at 622 nm was used as indicator of the amount of BCL-2/Bad complexes present.
The resulting data (ratio) were normalized, taking 0% inhibition as the mean value of control measurements (usually 32 data points) where all reagents were included. In this case 50 nl DMSO were used instead of compounds. A 100% inhibition corresponded to the mean value of control measurements (usually 32 data points) where all reagents except BCL-2 were included. IC50 values were determined by regression analysis based on a 4 parameter equation (minimum, maximum, IC50, Hill; Y=Max+(Min−Max)/(1+(X/IC50)^HiII) using the Screener Software (Genedata).

[2] = test system: SUDHL10; experiment: Induction of cytotoxicity (Assay 6), SUDHL10; conditions: read-out: Cytotox SUDHL10 [M] (median) IC50, CellTiter-Glo, 5 hours, SUDHL10
[3] = test system: MV-4-11; experiment: Antiproliferation assay (Assay 7), MV-4-11; format: cell-based; conditions: CellTiter-Glo, several values per example
Protocol: Assessment of the Anti-Proliferative Effect of Compounds in Different Cell Lines
The impact of compounds on the proliferation of different cell lines was assessed using the CellTiter-Glo® Luminescent Cell Viability reagent from Promega (G7573).
In parallel, cells were plated in a reference (day 0) plate for time zero determination.
Rim wells were excluded. The cells were incubated for 72 hours in a humidified incubator at 37° C. The day 0 plate was measured by adding 30 μL/well of CTG solution (CellTiter-Glo® Luminescent Cell Viability reagent, Promega G7573) to time zero wells in the reference plate followed by a 10 minutes incubation and luminescence reading at 0.1 ms. using the PHERAstar FS microplate reader (BMG Labtech).
After 72 hours incubation, the treated plates were measured in the same way as the day 0 plate mentioned above.

[4] = Homo sapiens, MV4-11, 72 h, read-out: Antiproli MV-4-11 [M] IC50

Structure (SMILES): CCc1c2c(nn1C)CN(C)S(=O)(=O)CCCn1c(C(=O)O)c(CCCOc3cccc4ccccc34)c3ccc(Cl)c-2c31 [Example 20, (rac)-13-Chloro-12-ethyl-8,11-dimethyl-1-(3-(naphthalen-1-yloxy)propyl)-5,6,9,11-tetrahydro-4H,8H-pyrazolo[3′,4′:4,5][1]thia[2,8]diazacycloundecino[6,7,8-hi]indole-2-carboxylic acid 7,7-dioxide]
- IC50 [1]: > 20 µM
- IC50 [3, 4]: 1.31e-06 M
- IC50 ([2]; Homo sapiens, SU-DHL10, 5 h): 1.7e-06 M

Structure (SMILES): CCc1c2c(nn1C)CN(C)S(=O)(=O)CCCn1c(C(=O)O)c(CCCOc3cccc4c3CCCC4)c3ccc(Cl)c-2c31 [Example 23, (rac)-13-Chloro-12-ethyl-8,11-dimethyl-1-(3-((5,6,7,8-tetrahydronaphthalen-1-yl)oxy)propyl)-4,5,6,8,9,11-hexahydropyrazolo[3′,4′:4,5][1,2,8]thiadiazacycloundecino[6,7,8-hi]indole-2-carboxylic acid 7,7-dioxide]
- IC50 [1]: 15 µM
- IC50 [3, 4]: 1.96e-06 M
- IC50 ([2]; Homo sapiens, SU-DHL10, 5 h): 2.5e-06 M

Structure (SMILES): Cc1c2c(nn1C)CN(C)S(=O)(=O)CCCn1c(C(=O)O)c(CCCOc3cccc4ccccc34)c3ccc(Cl)c-2c31 (single isomer, unassigned; enantiomer 2) [Example 6, 4-Chloro-2,3,14-trimethyl-7-{3-[(naphthalen-1-yl)oxy]propyl}-13,13-dioxo-10,11,12,13,14,15-hexahydro-2H-13λ^6-pyrazolo[3′,4′:4,5][1,2,8]thiadiazacycloundecino[6,7,8-hi]indole-8-carboxylic acid-N-ethylethanamine salt (Enantiomer 2)]
- IC50 ([3]; 72 hours, listed as 06, read-out: Antiproli MV-4-11 [M] IC50): 2.02e-05 M
- IC50 [2]: 1.7e-05 M

Structure (SMILES): Cc1c2c(nn1C)CN(C)S(=O)(=O)CCCn1c(C(=O)O)c(CCCOc3cccc4ccccc34)c3ccc(Cl)c-2c31 (single isomer, unassigned; enantiomer 1) [Example 5, 4-Chloro-2,3,14-trimethyl-7-{3-[(naphthalen-1-yl)oxy]propyl}-13,13-dioxo-10,11,12,13,14,15-hexahydro-2H-13λ^6-pyrazolo[3′,4′:4,5][1,2,8]thiadiazacycloundecino[6,7,8-hi]indole-8-carboxylic acid-N-ethylethanamine salt (Enantiomer 1)]
- IC50 [2]: 7.1e-07 M

Structure (SMILES): Cc1c2c(nn1C)C(CCN1CCOCC1)N(C)S(=O)(=O)CCCn1c(C(=O)O)c(CCCOc3cccc4cc(F)ccc34)c3ccc(Cl)c-2c31 (single isomer, unassigned; enantiomer 2) [Example 67, 4-chloro-7-{3-[(6-fluoronaphthalen-1-yl)oxy]propyl}-2,3,14-trimethyl-15-[2-(morpholin-4-yl)ethyl]-13,13-dioxo-10,11,12,13,14,15-hexahydro-2H-13lambda^6-pyrazolo[3′,4′:4,5][1,2,8]thiadiazacycloundecino[6,7,8-hi]indole-8-carboxylic acid (Enantiomer 2)]
- IC50 [2]: 1.8e-08 M

Further lines, with some results ahead:

- IC50 [1]: > 20 µM
Structure (SMILES): CCc1c2c(nn1C)CN(CCN1CCOCC1)S(=O)(=O)CCCn1c(C(=O)O)c(CCCOc3cccc4cc(F)ccc34)c3ccc(Cl)c-2c31 [Example 77, (rac)-13-chloro-12-ethyl-1-(3-((6-fluoronaphthalen-1-yl)oxy)propyl)-11-methyl-8-(2-morpholinoethyl)-5,6,9,11-tetrahydro-4H,8H-pyrazolo[3′,4′:4,5][1]thia[2,8]diazacycloundecino[6,7,8-hi]indole-2-carboxylic acid 7,7-dioxide]
- IC50 ([2]; Homo sapiens, SU-DHL10, 5 h): 1.3e-05 M

- IC50 [1]: > 20 µM
- IC50 [3, 4]: 4.62e-06 M
Structure (SMILES): CCc1c2c(nn1C)CN(C)S(=O)(=O)CCCn1c(C(=O)O)c(CCCOc3cc(C)c(Cl)c(C)c3)c3ccc(F)c-2c31 (racemic) [Example 33, (rac)-1-(3-(4-Chloro-3,5-dimethylphenoxy)propyl)-12-ethyl-13-fluoro-8,11-dimethyl-5,6,9,11-tetrahydro-4H,8H-pyrazolo[3′,4′:4,5][1]thia[2,8]diazacycloundecino[6,7,8-hi]indole-2-carboxylic acid 7,7-dioxide]
- IC50 ([2]; Homo sapiens, SU-DHL10, 5 h): 6.4e-06 M

- IC50 [1]: > 20 µM
- IC50 [3, 4]: 3.5e-06 M
Structure (SMILES): Cc1c2c(nn1C)CN(C)S(=O)(=O)CCCn1c(C(=O)O)c(CCCOc3ccc(F)c4ccccc34)c3ccc(F)c-2c31 [Example 30, (rac)-13-Fluoro-1-(34(4-fluoronaphthalen-1-yl)oxy)propyl)-8,11,12-trimethyl-5,6,9,11-tetrahydro-4H,8H-pyrazolo[3′,4′:4,5][1]thia[2,8]diazacycloundecino[6,7,8-hi]indole-2-carboxylic acid 7,7-dioxide]
- IC50 ([2]; Homo sapiens, SU-DHL10, 5 h): 4.4e-06 M

- IC50 [1]: 16 µM
Structure (SMILES): CCc1c2c(nn1C)C(CCC1CCOCC1)N(C)S(=O)(=O)CCCn1c(C(=O)O)c(CCCOc3cccc4cc(F)ccc34)c3ccc(Cl)c-2c31 (single isomer, unassigned; enantiomer 1) [Example 61, (+)-4-chloro-3-ethyl-7-{3-[(6-fluoronaphthalen-1-yl)oxy]propyl}-2,14-dimethyl-15-[2-(oxan-4-yl)ethyl]-13,13-dioxo-10,11,12,13,14,15-hexahydro-2H-13lambda^6-pyrazolo[3′,4′:4,5][1,2,8]thiadiazacycloundecino[6,7,8-hi]indole-8-carboxylic acid (Enantiomer 1)]
- IC50 [2]: 4.9e-08 M

- IC50 [1]: 19 µM
Structure (SMILES): CCc1c2c(nn1C)C(CCC1CCOCC1)N(C)S(=O)(=O)CCCn1c(C(=O)O)c(CCCOc3cccc4cc(F)ccc34)c3ccc(Cl)c-2c31 (single isomer, unassigned; enantiomer 3) [Example 63, (+)-4-chloro-3-ethyl-7-{3-[(6-fluoronaphthalen-1-yl)oxy]propyl}-2,14-dimethyl-15-[2-(oxan-4-yl)ethyl]-13,13-dioxo-10,11,12,13,14,15-hexahydro-2H-13lambda^6-pyrazolo[3′,4′:4,5][1,2,8]thiadiazacycloundecino[6,7,8-hi]indole-8-carboxylic acid (Enantiomer 3)]
- IC50 [2]: 8.6e-08 M

- IC50 [1]: > 20 µM
Structure (SMILES): Cc1c2c(nn1C)CNS(=O)(=O)CCCn1c(C(=O)O)c(CCCOc3cccc4cc(F)ccc34)c3ccc(Cl)c-2c31 (single isomer, unassigned; enantiomer 1) [Example 51, 4-chloro-7-{3-[(6-fluoronaphthalen-1-yl)oxy]propyl}-2,3-dimethyl-13,13-dioxo-10,11,12,13,14,15-hexahydro-2H-13lambda^6-pyrazolo[3′,4′:4,5][1,2,8]thiadiazacycloundecino[6,7,8-hi]indole-8-carboxylic acid (Enantiomer 1)]
- IC50 [2]: 9.8e-07 M
